The text below walks through data of patent US6780984B2, “Method for prognosing cancer and the proteins involved” (Northwestern University, priority 2000, dated 2004).

Experiment [1] deals with PC3 cells transfected with the tripartite fusion protein. Put plainly: FACS analysis of annexin V staining. Format: cell-based, human. Conditions: 300 nM OHT for 72 hours, cells expressing GFP-TRAITS-ER. On the procedure:
(§1) FIGS. 16a-16c show the apoptosis induction by TRAITS activation. […] The GFP-TRAITS-ER protein is localized primarily in cytoplasm in the absence of OHT, as visualized under green fluorescent microscope. The fusion protein was translocated into nuclei 24 hours after treatment of the cells with 300 nM OHT and then condensed in the fragmented nuclei 48 hours after the OHT treatment. The condensed and fragmented nuclei of the OHT-treated PC3 cells were then visualized by Hoechst staining. […] The PC3 cells were cultured in the absence or presence of 300 nM OHT for 72 hours prior to FACS analysis. The figure represents one of the 3 different experiments.
(§2) Cell death assays flow cytometry analysis: In flow cytometry analysis, cells cultured under the indicated conditions were harvested for staining with the TACS™ Annexin V-Biotin apoptosis detection kit (R & D systems). Propidium iodide was used for nuclei staining and Cy5 was conjugated to Annexin V-biotin. Apoptosis of Annexin V-positive cells was analyzed by FACS. Hoechst 33342 (Molecular Probes) was used for nuclear condensate staining and DNA fragmentation assay.
(In general: A flow cytometer gives signals particle by particle.)

Experiment [2] deals with AT6.1 xenograft prostate tumor. Put plainly: AT6.1 prostatic xenograft tumor growth in nude mice. Format: in vivo. From the text:
The tamoxifen pellets were implanted at the time of AT6.1 cell injection. The error bars represent S.E.M. The tamoxifen inhibition of AT6.1 tumor growth was statistically significant (p<0.005) at every time point of tumor measurement. […] The loading of total RNA was visualized by methylene blue staining. FIG. 17c is the northern blot analysis of TRAITS expression in rat prostatic tissues and cancer cell lines. The loading of total RNA was visualized by methylene blue staining. […] Affinity purified anti-human TRAITS polyclonal antibody was used in immunostaining of radical prostatectomy specimens from 8 patients with advanced prostate cancer (Gleason-score 7 to −10). […] A typical TRAITS down-regulation was shown with 20× objective (left) and the boxed area shown at high magnification (middle). A parallel staining without primary antibody (right) was conducted as a control. Blue arrows with solid line point to benign epithelial cells whereas red arrows with broken line indicate cancerous cells.
Tumor growth: To determine their tumorigenicity, AT6.1 cells were injected subcutaneously (1×10^5 cells) into 4-6 week old male nu/nu mice (NCI). […] Tumor sizes were calculated using formula V=π×h (h^23a^2)/6, a=(L((+))W)/4 (Nature, 405:354-359) and the Student's t-test (two-tailed) was performed to analyze statistical significance using the SPSS 10.0 software (SPSS Inc., Chicago, Ill.).

Experiment [3] relates to PC3 cells. Nature of the experiment: Apoptosis induction by GFP fusion constructs transfected into PC3 cells. Format: cell-based, human. Particulars: for cells expressing the GFP fusion protein: 10 days in medium including 500 μg/ml geneticin (G418); for role of domain in apoptosis induction: domain mapping / deletion mutagenesis, GFP fusions. How it is done:
as §1
(§3) Vector constructions and mutagenesis: The cDNAs of rat and human TRAITS were cloned into pEGFP C1, pEGFP N3, PM and pIRES2-EGFP(Clontech) by PCR. Deletion mutagenesis of TRAITS were generated by PCR and cloned into above first three vectors. The plasmids containing ER™ domain were kindly provided by G. Evan (UCSF, San Francisco). ER™ domain was cut with BamHI/EcoRI and recloned into pEGFP-TRAITS to generate a tripartite fusion protein. All constructions were verified by sequencing and transfected using Lipofectamine (Gibco), Super Fect reagent (Qiagen) or Fugene 6 (Roche). In stable transfection, 500 μg/ml geneticin (G418) was used for selection of positive clones.
Genomic structure and mutagenesis of TRAITS: TRAITS is composed of six exons (FIG. 18) which in humans encode respectively, 35 amino acid residues, 32 amino acid residues, 46 amino acid residues, 48 amino acid residues, 85 amino acid residues, and 14 amino acid residues (see FIG. 14a for exon junctions). In an effort to determine the role of individual domains, domain mapping was performed by fusing nucleic acids encoding GFP to nucleic acids encoding fragments of the TRAITS in pEGFPN3 vectors. The vectors was then used for transient and stable transfection of PC3 cells. The ability of the various constructs to induce apoptosis was determined.

Experiment [4] deals with CAT reporter gene expression. Nature of the experiment: Mammalian two-hybrid analysis, CAT reporter assay in NIH3T3 cells. The experiment is classed as cell-based. How it is done: A non-specific complex (*) in the presence of GST-TRAITS was also formed in the presence of GST only. Labeled free DNA (F) was also indicated. […] NIH3T3 cells were transiently transfected with empty vector (PM) or vectors expressing the full-length rat TRAITS (residues 1-262 of SEQ ID NO:14), its N-terminal (residues 1-113 of SEQ ID NO:14), or its C-terminal (residues 114-262 of SEQ ID NO:14) plus pG5CAT reporter and pSV-β-gal for normalization. Assays were performed after 24 hours of transfection. The fold activation of CAT reporter is shown with S.E.M. Assays were performed in triplicate in two separate experiments.
CAT reporter assays: CAT activities were assayed 24 hours after transfection. NIH3T3 cells were grown in 6-well plates and transfected using Superfect (Qiagen). For transient transfection, 2 μg of PM constructions, 2 μg of pSVβ-gal (internal control) and 2 μg of pG5CAT (Clontech) were used per well. The level of CAT protein in cell extracts was determined using a CAT ELASA kit (Roche) according to the manufacturer. Protein concentration was measured using a Dc protein Assay kit (Bio-Rad). β-Galactosidase activity was measured by incubating with ONPG (o-nitrophenyl-β-D-galactopyranoside) solution. Data are reported as means ±S.E.M. of two separate experiments performed in triplicate.
A general note: A reporter such as luciferase makes a cellular process visible.

Experiment [5] concerns PC3 cells. Nature of the experiment: Soft agar assay (anchorage-independent growth). The experiment is classed as cell-based, human. Particulars: stable overexpression in PC3 sublines. On the procedure: FIGS. 4A-4D show the effect of calreticulin overexpression on colony formation of PC3 cells in a soft agar assay, PC3 (FIG. 4A), Mock (FIG. 4B), Crt 35 (FIG. 4C) and Crt 59 (FIG. 4). The soft agar assay was conducted in 6-well plates. The bottom agar is 2 ml 0.6% noble agar containing 1×RPMI 1640 medium supplemented with 10% fetal bovine serum (FBS). After the preparation of bottom agar, 1 ml of 0.3% top agar containing 5,000 cells and 1×RPMI 1640 medium supplemented with 10% FBS was added to form the top layer. The assay for each PC3 subline was carried out in duplicate and was repeated at least 3 times.
Colonies with greater than 125 um in diameter were counted in the quantification. Error bars represent standard error means (SEM).
Soft agar assay: The soft agar assay was conducted in 6-well plates. The bottom agar is 2 ml 0.6% noble agar containing 1×RPMI 1640 medium supplemented with 10% FBS. After the preparation of bottom agar, 1 ml of 0.3% top agar containing 5,000 cells and 1×RPMI 1640 medium supplemented with 10% FBS was added to form the top layer. The assay for each PC3 subline was carried out in duplicate and was repeated at least 3 times.

The subject of experiment [6] is PC3 cells. Put plainly: Proliferation assay (cell numbers). Format: cell-based, human. Conditions: ectopic expression, stably transfected PC3 sublines, culture in 6-well plates 4-5 days. The text has this: The cell numbers of the parental PC3, empty pcDNA3.1 vector transfected PC3 sublines M1 and M2, and pcDNA3.1-TID-1 transfected PC3 sublines 27, 41, and 44 were counted after culture in 6-well plates for 4 days.
The cell numbers of the parental PC3, empty pCMV-Tag vector transfected PC3 sublines fM1 and fM2, and pCMV-Tag-fTID-1 transfected PC3 sublines f33, f17, and f23 were counted after culture in 6-well plates for 5 days. The proliferation and soft agar assays are described in Methods of Example 3 below.
Proliferation assay: Cells were plated onto 6-well plates in triplicate at 50,000 cells/well and cultured in RPMI 1640 medium supplemented with 10% fetal bovine serum (FBS), and 1% penicillin/streptomycin. The cells were trypsinized and counted each day afterwards for a five-day time course. The data were plotted using the GraphPad Prism software. The error bars represent SEM and they are difficult to see when SEM is very small. The cell proliferation assay was repeated 3 times and the results were very reproducible.

Another experiment deals with ventral prostate. Put plainly: C3(I)-TID-1 transgenic mice. The experiment is classed as in vivo, mouse. Conditions: transgenic vs non-transgenic littermates. From the text: To study the role of TRAITS protein in the prostate in vivo, an expression vector, C3 (I)-TID-1, was generated that expresses TRAITS under the control of the prostate C3(I) promoter [Zhang et al., Prostate, 32:16-26 (1997)]. The C3(I) promoter is androgen-dependent and active only in the ventral prostate and testis. Two transgenic mouse lines were identified by PCR amplification of the tail genomic DNA using primers specific for the TRAITS transgene. […] The C3(I)-TID-1 transgenic mice are fertile.

Experiment [7] has as its system human prostate cancer cell lines (LNCaP, PC3, DU145 and TSU), rat Dunning prostate tumor cell lines, NIH3T3 and Hela. Nature of the experiment: Cell death after transient transfection of TRAITS expression vectors. Format: cell-based.
From the text: as §3, §2
To further characterize the function of TRAITS, green fluorescent protein (GFP) was tagged to TRAITS at its N-terminal or C-terminal ends using pEGFP C1 and pEGFP N3 vector, respectively (Clontech). […]

The subject of another experiment is LNCaP. Nature of the experiment: Stable transfection of LNCaP with CMV-fTID-1. Format: cell-based, human. Conditions: two different experiments. From the text: The CMV-fTID-1 expression vector was also transfected into LNCaP, an androgen-responsive human prostate cancer cell line [Horoszewicz et al., Cancer Research 43:1809-18 (1983)], in two different experiments. […] The expression of the endogenous TID-1 gene was also not detected in the rat Dunning tumor cell lines (FIGS. 10A-10B) and various human prostate cancer cell lines including LNCaP, PC3, DU145, and TSU cells. […] Stable expression was observed using a CMV promoter-based expression vector. Clonal variations of stably transfected cells can be minimized by assaying multiple, (e.g., three) independent stably transfected sublines.

With 4-hydroxytamoxifen [OHT], the “apoptotic cells (annexin V)” value in [1] is 60.7%.

In the case of `CC/C(=C(\c1ccccc1)c1ccc(OCCN(C)C)cc1)c1ccccc1` [tamoxifen], in [2] (tamoxifen administration, parallel experiments), the “growth of xenograft tumors from parental or GFP-ER transfected AT6.1 cells” value is reported as “no detectable influence”. In experiment [2] (tamoxifen pellets implanted at cell injection, p<0.005), the “growth of xenograft tumors from AT6.1 sublines expressing GFP-TRAITS-ER” value is recorded as “significantly inhibited”.

Consider “EAF1: protein with sequence homology to TRAITS, SEQ ID NO:20; tested as GFP fusion”, for which the cell death result in the experiment on PC3 cells [3] (GFP fusion proteins from pEGFP N3, human and mouse) is on record as “cause cell death”.

As for “N-terminal region of TRAITS: approximately amino acids 1-113 of TID-1, fused to GFP”, in the experiment on PC3 cells [3], the “cells expressing the GFP fusion protein” value was “none of the cells were found to express the N-terminal fusion protein”; the “role of domain in apoptosis induction” value is “necessary and sufficient for inducing apoptosis”.

As to “TID-1: novel testosterone regulated apoptosis inducer and tumor suppressor; transcription factor, SEQ ID NOs:14 (rat), 16 (mouse), 18 (human)”, in [4] (24 hours after transfection), the “transactivation of CAT reporter gene expression” value is recorded as “more than 40 fold”. Besides, the “colony formation in soft agar” value with PC3 cells [5] was “inhibition of the size and number of colonies”. Also, the “reduction in cell numbers” value in the experiment on PC3 cells [6] was 2 fold. Also, in the experiment with ventral prostate, the “enhancement of epithelial cell number per unit area in the ventral prostate” value was 2-3 fold. For the same molecule, the “programmed cell death phenotype of transfected cells” value in [7] is “efficiently induced chromatin condensation and cell death”.

As for “exon III: TRAITS fragment corresponding to amino acids 68-113 of SEQ ID NO:18, fused to GFP”, the “role of domain in apoptosis induction” value with PC3 cells [3] is “both necessary and sufficient to induce apoptosis”.

For the molecule “fTID-1: FLAG tagged TID-1 protein expressed from pCMV-Tag-fTID-1”, the “reduction in cell numbers” value in the experiment on PC3 cells [6] is 2 fold. Further, the “recovery of clones expressing fTID-1” value in the experiment on LNCaP was “no LNCaP clones expressing fTID-1 were found”.

B1: C-terminal region: remaining approximately 147-149 amino acids of TID-1 containing the transactivation domain (protein)
chain: GEGSSKIQCRLEQQQQQMWNPPRTSNLVQHSPSEDKLSPTSLMDDIERELKAEASLMDQMSSCDSSSDSRSSSSSSSEDSSSDSEDDDRSSPSGPRRYSSEHPSVSAGPQYRTSDADTTCNRLYDNSALLMSTLRSDLQLSESDSDSED
With B1, the “transactivation relative to full-length (deletion mutagenesis)” value in [4] (deletion of the N-terminal region) is reported as “enhance the transactivation”. Further, in the experiment on PC3 cells [3], the “cells expressing the GFP fusion protein” value is “many of the cells expressed the C-terminal fusion protein” and the “role of domain in apoptosis induction” value is on record as “not required for TRAITS to induce apoptosis”.
